We go through 25 compounds from US5827715A, “Heat resistant maltose phosphorylase, process for preparation thereof, bacteria used for preparation thereof, and methods for using the enzyme” (Showa Sangyo Co., Ltd., priority 1995, dated 1998).

The target of assay [1] is T1, heat resistant maltose phosphorylase (Bacillus sp. RK-1, UniProt Q84IX5). Description: Inhibitor test on heat resistant maltose phosphorylase activity. As to conditions: for activity at 1000 µM: read-out: Relative activity (%); for inhibition of the activity: 1 mM inhibitor, heat resistant maltose phosphorylase. Type of assay: biochemical. The procedure:
(§1) The enzymological properties of the heat resistant maltose phosphorylase of the invention are as follows. As the heat resistant maltose phosphorylase,one obtained in Example 1 and prepared from Bacillus sp. RK-1 was used.
(§2) In this connection, maltose phosphorylase activity was assayed according to the following method. An enzyme solution (0.4 ml), 0.06 ml of 0.5M potassium phosphate-citric acid buffer (pH 6.0), 0.6 ml of 2 w/v % maltose and 0.14 ml of distilled water were mixed, and reaction was carried out at 60° C. for 15 minutes and ceased by boiling for 10 minutes. Then, 0.02 ml of a sample was taken from the reaction-ceased solution, 3 ml of a reagent for glucose examination (Glucose CII-Test Wako; Wako Pure Chemical Industries, Ltd.) was added, reaction was carried at room temperature for 20 minutes, the absorbance at 505 nm was measured using a spectrophotometer, and the amount of glucose formed in the reaction solution was determined from the measured value. From the amount of the formed glucose, the amount of the enzyme necessitated to phosphorolyze 1 μmol of maltose in one minute is calculated, and was assumed to be 1 unit.

Assay [2] has as its target T2, heat resistant trehalose phosphorylase (Geobacillus stearothermophilus, UniProt Q8GRC3).
T2 construct: heat resistant trehalose phosphorylase which Bacillus stearothermophilus SK-1 found by the present inventors produces; made in house; host or cells: Bacillus stearothermophilus SK-1 (FERM BP-5594), the producing strain itself
Description: biochemical. The class given is biochemical, Bacillus stearothermophilus SK-1. As to conditions: for activity at 1000 µM: read-out: Relative activity (%); for inhibition of the activity: 1 mM inhibitor, heat resistant trehalose phosphorylase. From the text: As the heat resistant maltose phosphorylase in the above process, there can be used the same ones as in the above process for preparation of β-glucose-1-phosphoric acid can be used. As the heat resistant trehalose phosphorylase, any one can be used so long as it can produce trehalose from maltose and phosphoric acid or a phosphate salt at one of the above reaction temperatures and at one of the above pH values, with the aid of the heat resistant maltose phosphorylase. […] The SK-1 strain was first deposited on Sep. 29, 1994 with National Institute of Bioscience and Human Technology, Agency of Industrial Science and Technology, the Ministry of International Trade and Industry, Japan under an accession number of FERM P-14567, and then transferred there to deposit according to Budapest Treaty on microorganisms on Jul. 17, 1996, and is assigned an accession number of FERM BP-5594. An example of preparation of the above heat resistant trehalose phosphorylase is shown in Example 4 (crude enzyme) and Reference example 1 (purified enzyme).
(§3) In this connection, trehalose phosphorylase activity was assayed by the following method. An enzyme solution (0.4 ml), 0.06 ml of 0.5M potassium phosphate-citric acid buffer (pH 6.0), 0.6 ml of 2 w/v % trehalose and 0.14 ml of distilled water were mixed, and reaction was carried out at 60° C. for 20 minutes and ceased by boiling for 10 minutes. Then, 0.02 ml of a sample was taken from the reaction-ceased solution, 3 ml of a reagent for glucose examination (Glucose CII-Test Wako; Wako Pure Chemical Industries, Ltd.) was added, reaction was carried out at room temperature for 20 minutes, the absorbance at 505 nm was measured using a spectrophotometer, and the amount of glucose formed in the reaction solution was determined from the measured value. As to the definition of the trehalose phosphorylase activity, the amount of the enzyme necessitated to phosphorolyze 1 μmol of trehalose in one minute under the above assay conditions was assumed to be 1 unit.

For assay [3], the target named is T1, heat resistant maltose phosphorylase. Description: Substrate specificity of heat resistant maltose phosphorylase (phosphorolysis reaction, glucose formed). The class given is biochemical. Also on record: Relative activity (%): concentration or dose not given beside the values. As to conditions: for Relative activity (%): each substance as substrate of phosphorolysis by heat resistant maltose phosphorylase, maltose = 100; for formation of glucose: phosphorolysis reaction with the substance as substrate, heat resistant maltose phosphorylase. The procedure: as §1, §2

Assay [4] concerns the target T2, heat resistant trehalose phosphorylase. Description: Substrate specificity of heat resistant trehalose phosphorylase (phosphorolysis reaction, glucose formed). The class given is biochemical, Bacillus stearothermophilus SK-1. Set-up: Relative activity (%): concentration or dose not given beside the values. As to conditions: for Relative activity (%): each substance as substrate of phosphorolysis by heat resistant trehalose phosphorylase, trehalose = 100; for formation of glucose: phosphorolysis reaction with the substance as substrate, heat resistant trehalose phosphorylase.
Source text: As the heat resistant maltose phosphorylase in the above process, there can be used the same ones as in the above process for preparation of β-glucose-1-phosphoric acid can be used. As the heat resistant trehalose phosphorylase, any one can be used so long as it can produce trehalose from maltose and phosphoric acid or a phosphate salt at one of the above reaction temperatures and at one of the above pH values, with the aid of the heat resistant maltose phosphorylase. However, there can, preferably, be used heat resistant trehalose phosphorylase having an activity of 95% or more of the one untreated after treated in a buffer of pH 6.0, at one temperature of 50° to 65° C., preferably at one temperature of 55° to 65° C., further preferably at one temperature of 60° to 65° C., particularly preferably at 65° C., for 15 minutes. As an example of heat resistant trehalose phosphorylase having such a property, there can be mentioned heat resistant trehalose phosphorylase which Bacillus stearothermophilus SK-1 found by the present inventors produces. The SK-1 strain was first deposited on Sep. 29, 1994 with National Institute of Bioscience and Human Technology, Agency of Industrial Science and Technology, the Ministry of International Trade and Industry, Japan under an accession number of FERM P-14567, and then transferred there to deposit according to Budapest Treaty on microorganisms on Jul. 17, 1996, and is assigned an accession number of FERM BP-5594. An example of preparation of the above heat resistant trehalose phosphorylase is shown in Example 4 (crude enzyme) and Reference example 1 (purified enzyme). The enzymological properties of this purified enzyme are as follows.
as §3

The mark [5] stands for this setting: maltose phosphorylase activity with 1 mM inhibitor, no addition = 100.
The mark [6] stands for this setting: trehalose phosphorylase activity with 1 mM inhibitor, no addition = 100.

Read-outs that look alike come from different tables or passages of the source.

T1 sequence (Q84IX5 entry or part of it, change not shown): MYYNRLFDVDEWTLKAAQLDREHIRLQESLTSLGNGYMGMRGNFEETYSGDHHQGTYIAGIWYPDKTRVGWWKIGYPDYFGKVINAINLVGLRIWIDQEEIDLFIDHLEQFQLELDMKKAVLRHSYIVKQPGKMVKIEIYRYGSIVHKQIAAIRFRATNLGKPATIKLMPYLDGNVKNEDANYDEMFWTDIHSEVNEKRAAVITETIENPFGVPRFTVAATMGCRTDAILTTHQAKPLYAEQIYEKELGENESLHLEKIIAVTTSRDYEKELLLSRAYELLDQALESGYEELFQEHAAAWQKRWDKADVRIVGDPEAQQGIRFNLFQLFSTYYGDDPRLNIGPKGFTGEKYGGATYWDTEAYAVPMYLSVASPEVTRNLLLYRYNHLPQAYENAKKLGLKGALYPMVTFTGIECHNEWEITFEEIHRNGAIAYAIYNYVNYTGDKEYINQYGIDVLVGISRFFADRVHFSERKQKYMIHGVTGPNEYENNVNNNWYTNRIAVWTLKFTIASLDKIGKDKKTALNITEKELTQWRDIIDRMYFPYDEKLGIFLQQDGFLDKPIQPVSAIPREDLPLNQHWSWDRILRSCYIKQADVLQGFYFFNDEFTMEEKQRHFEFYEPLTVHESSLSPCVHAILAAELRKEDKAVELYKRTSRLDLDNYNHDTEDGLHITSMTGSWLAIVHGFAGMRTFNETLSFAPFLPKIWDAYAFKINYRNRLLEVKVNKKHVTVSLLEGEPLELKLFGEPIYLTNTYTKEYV
T2 sequence (Q8GRC3 whole entry, change not shown): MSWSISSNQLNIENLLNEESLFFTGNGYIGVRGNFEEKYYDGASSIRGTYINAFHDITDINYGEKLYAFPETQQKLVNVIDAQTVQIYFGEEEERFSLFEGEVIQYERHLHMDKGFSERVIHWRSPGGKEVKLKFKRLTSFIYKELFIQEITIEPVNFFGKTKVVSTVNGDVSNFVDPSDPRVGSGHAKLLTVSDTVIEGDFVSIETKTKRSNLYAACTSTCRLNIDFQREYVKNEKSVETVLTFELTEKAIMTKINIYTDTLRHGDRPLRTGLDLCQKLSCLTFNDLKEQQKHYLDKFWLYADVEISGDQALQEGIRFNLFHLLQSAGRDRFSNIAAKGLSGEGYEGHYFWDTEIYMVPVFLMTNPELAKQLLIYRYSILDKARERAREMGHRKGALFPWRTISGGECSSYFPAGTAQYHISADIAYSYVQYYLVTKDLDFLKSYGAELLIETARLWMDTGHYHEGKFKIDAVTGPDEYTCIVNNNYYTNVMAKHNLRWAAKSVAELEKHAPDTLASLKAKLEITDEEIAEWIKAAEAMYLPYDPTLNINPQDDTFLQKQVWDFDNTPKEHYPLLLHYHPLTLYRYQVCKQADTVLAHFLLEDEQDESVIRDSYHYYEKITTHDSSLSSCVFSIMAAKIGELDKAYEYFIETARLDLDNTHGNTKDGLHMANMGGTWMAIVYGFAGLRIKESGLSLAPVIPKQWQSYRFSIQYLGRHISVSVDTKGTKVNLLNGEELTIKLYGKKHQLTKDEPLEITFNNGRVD

Turning to `O=S(=O)([O-])[O-].[Cu+2]` [CuSO4], the “Relative activity (%)” value in assay [1] (setting [5]) was determined as 91%; in assay [2] (setting [6]), 89%.
As to `OCCS` [Mercaptoethanol], the activity at 1000 µM in assay [1] (setting [5]) is 94%; in assay [2] (setting [6]) it was 96%.
As to `O=C(O)c1cc[c]([Hg][Cl])cc1` [PCMB, p (Chloromercuri) benzoic acid], the “Relative activity (%)” value in assay [1] (setting [5]) is reported as 20%; in assay [2] (setting [6]), 0%.
With `OC[C@H]1O[C@@](CO)(O[C@H]2O[C@H](CO)[C@@H](O)[C@H](O)[C@H]2O)[C@@H](O)[C@@H]1O` [Sucrose], in assay [3], the “Relative activity (%)” value was 0% and the formation of glucose entry is “scarcely observed”. Also, in assay [4], the “Relative activity (%)” value is 1% and the formation of glucose result is listed as “scarcely observed”.
With `CC(=O)[O-].CC(=O)[O-].[Pb+2]` [Pb (CH3 COO)2], the “Relative activity (%)” value in assay [1] (setting [5]) is 99%; in assay [2] (setting [6]), 93%.
Take `O=C(O)CN(CCN(CC(=O)O)CC(=O)O)CC(=O)O` [EDTA.2Na]: the activity at 1000 µM in assay [1] is 100%.
Regarding `OC[C@H]1O[C@@H](OC[C@H]2OC(O)[C@H](O)[C@@H](O)[C@@H]2O)[C@H](O)[C@@H](O)[C@@H]1O` (stereo partly drawn) [Gentiobiose], in assay [3], the “Relative activity (%)” value was determined as 2%.
Consider `[Cl-].[Cl-].[Mg+2]` [MgCl2], for which the “Relative activity (%)” value in assay [1] (setting [5]) stood at 100%; in assay [2] (setting [6]), 103%.
Take `O=[N+]([O-])c1ccc(O[C@@H]2O[C@H](CO)[C@@H](O)[C@H](O)[C@H]2O)cc1` [D - glucosideyl - β, p-nitrophenyl-β-D-glucoside]: in assay [3], the “Relative activity (%)” value was 0% and the formation of glucose result is reported as “scarcely observed”. Also, in assay [4], the “Relative activity (%)” value is 2% and the formation of glucose result was “scarcely observed”.
`[Ca+2].[Cl-].[Cl-]` [CaCl2]: the “Relative activity (%)” value in assay [1] (setting [5]) came to 101%; in assay [2] (setting [6]) it was 102%.
Regarding `O=S(=O)([O-])[O-].[Zn+2]` [ZnSO4], the “inhibition of the activity” value in assay [1] worked out at 37%; in assay [2], 80%. The results for the “Relative activity (%)” value in assay [1] (setting [5]) and in assay [2] (setting [6]) were 63% and 20%, respectively.
As for `OC[C@H]1O[C@@H](O[C@H]2[C@H](O)[C@@H](O)C(O)O[C@@H]2CO)[C@H](O)[C@@H](O)[C@H]1O` (stereo partly drawn) [Lactose], the “Relative activity (%)” value in assay [3] is listed as 0%.
For Soluble starch, the “Relative activity (%)” value in assay [3] amounted to 2%.
Regarding `OC[C@H]1O[C@@H](O[C@H]2O[C@H](CO)[C@@H](O)[C@H](O)[C@H]2O)[C@H](O)[C@@H](O)[C@@H]1O` [Neotrehalose], in assay [3], the “Relative activity (%)” value came out at 0% and the formation of glucose result is “scarcely observed”. Further, in assay [4], the “Relative activity (%)” value amounted to 1% and the formation of glucose entry was “scarcely observed”.
Regarding `OC[C@H]1O[C@H](OC[C@H]2OC(O)[C@H](O)[C@@H](O)[C@@H]2O)[C@H](O)[C@@H](O)[C@@H]1O` (stereo partly drawn) [Isomaltose], the “Relative activity (%)” value in assay [3] was determined as 2%; in assay [4] it was 3%. The formation of glucose result in assay [3] and in assay [4] was “scarcely observed” each time.
`[Cl][Hg][Cl]` [HgCl2]: the “inhibition of the activity” value in assay [1] and in assay [2] was 99% in each case. The “Relative activity (%)” value in assay [1] (setting [5]) and in assay [2] (setting [6]) was 1% in each case.
For `O=S(=O)([O-])[O-].[Mn+2]` [MnSO4], the “Relative activity (%)” value in assay [1] (setting [5]) is listed as 111%; in assay [2] (setting [6]) it was 108%.
Regarding `OC[C@H]1O[C@@H](O[C@H]2[C@H](O)[C@@H](O)C(O)O[C@@H]2CO)[C@H](O)[C@@H](O)[C@@H]1O` (stereo partly drawn) [Cellobiose], in assay [3], the “Relative activity (%)” value was 0% and the formation of glucose entry was “scarcely observed”. Also, in assay [4], the “Relative activity (%)” value is listed as 2% and the formation of glucose result is “scarcely observed”.
Regarding `OC[C@H]1O[C@H](O[C@H]2[C@H](O)[C@@H](O)[C@H](O)O[C@@H]2CO)[C@H](O)[C@@H](O)[C@@H]1O` [Maltose], the “Relative activity (%)” value in assay [3] was 100%. Also, in assay [4], the “Relative activity (%)” value was determined as 1% and the formation of glucose entry is reported as “scarcely observed”.
On to `[Ba+2].[OH-].[OH-]` [Ba (OH)2], for which the “Relative activity (%)” value turned out to be 100% in assay [1] (setting [5]) and 106% in assay [2] (setting [6]).
Take `O[C@H](CS)[C@H](O)CS` (racemic) [DTT, Dithiothreitol]: the activity at 1000 µM was found to be 101% in assay [1] (setting [5]) and 86% in assay [2] (setting [6]).
Regarding `O=[N+]([O-])c1ccc(O[C@H]2O[C@H](CO)[C@@H](O)[C@H](O)[C@H]2O)cc1` [D - glucosideyl - α, p-nitrophenyl-α-D-glucoside], in assay [3], the “Relative activity (%)” value is 0% and the formation of glucose result is “scarcely observed”. In addition, in assay [4], the “Relative activity (%)” value is 2% and the formation of glucose result is recorded as “scarcely observed”.
`[Cl][Fe][Cl]` [FeCl2]: the “Relative activity (%)” value was 94% in assay [1] (setting [5]) and 96% in assay [2] (setting [6]).
As to `O=C(O)CN(CCN(CC(=O)O)CC(=O)O)CC(=O)O` [EDTA], the activity at 1000 µM in assay [2] came out at 99%.
Consider `OC[C@H]1O[C@H](O[C@H]2O[C@H](CO)[C@@H](O)[C@H](O)[C@H]2O)[C@H](O)[C@@H](O)[C@@H]1O` [Trehalose], for which the “Relative activity (%)” value in assay [3] is listed as 0%; in assay [4] it was 100%. Further, the formation of glucose entry in assay [3] is “scarcely observed”.
